Results as given in patent publication US5691373A, “Nonpeptide endothelin antagonists I” (Warner-Lambert Company, priority 1995, dated 1997).
Where two headings read alike, the source gives them in different places.

What was measured:
ETB = molecular target: T1, ETB (Rattus norvegicus, UniProt P21451)
T1 sequence (P21451 27-442): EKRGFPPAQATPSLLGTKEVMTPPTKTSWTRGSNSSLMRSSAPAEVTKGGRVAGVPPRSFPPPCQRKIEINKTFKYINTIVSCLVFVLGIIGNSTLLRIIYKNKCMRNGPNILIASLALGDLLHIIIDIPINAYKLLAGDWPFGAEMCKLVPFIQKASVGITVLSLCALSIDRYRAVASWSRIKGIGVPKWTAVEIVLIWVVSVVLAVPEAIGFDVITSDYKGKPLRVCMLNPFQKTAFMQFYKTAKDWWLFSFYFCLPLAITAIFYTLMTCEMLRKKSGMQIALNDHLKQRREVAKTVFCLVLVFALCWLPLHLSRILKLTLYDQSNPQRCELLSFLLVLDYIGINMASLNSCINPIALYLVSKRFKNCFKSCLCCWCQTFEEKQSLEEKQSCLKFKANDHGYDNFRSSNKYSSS
Protocol: The tissue is made up of 20 mM tris(hydroxymethyl)aminomethane hydrochloride (Trizma) buffer, 2 mM ethylenediaminetetra acetate, 100 μM phenylmethylsulfonyl fluoride.
First, thaw one aliquot of frozen rat cerebellar membranes (2 mg protein in 0.5 mL). Next, add 0.5 mL membrane aliquot to 4.5 mL cold tissue buffer, polytron at 7,500 revolutions per minute for 10 seconds. Finally, dilute tissue suspension 1/100 (0.1 mL suspension+9.9 mL tissue buffer), polytron again, and place ice.
Mix in 150 μL of tissue to each tube, vortex briefly, then tap to force all liquids to bottom (total assay volume=250 μL). Then place the tubes in a 37° C. water bath for 2 hours.
Add 2.5 mL cold wash buffer (50 mM Trizma buffer) to each tube, filter, and then wash tube with additional 2.5 mL wash buffer and add to filter. Finally, wash filters with an additional 2.5 mL of cold wash buffer.
Count filters for radioactivity in gamma counter.

ETA [1] = molecular target: T2, ETA (Oryctolagus cuniculus, UniProt A5A8K3)
T2 sequence (A5A8K3 21-427): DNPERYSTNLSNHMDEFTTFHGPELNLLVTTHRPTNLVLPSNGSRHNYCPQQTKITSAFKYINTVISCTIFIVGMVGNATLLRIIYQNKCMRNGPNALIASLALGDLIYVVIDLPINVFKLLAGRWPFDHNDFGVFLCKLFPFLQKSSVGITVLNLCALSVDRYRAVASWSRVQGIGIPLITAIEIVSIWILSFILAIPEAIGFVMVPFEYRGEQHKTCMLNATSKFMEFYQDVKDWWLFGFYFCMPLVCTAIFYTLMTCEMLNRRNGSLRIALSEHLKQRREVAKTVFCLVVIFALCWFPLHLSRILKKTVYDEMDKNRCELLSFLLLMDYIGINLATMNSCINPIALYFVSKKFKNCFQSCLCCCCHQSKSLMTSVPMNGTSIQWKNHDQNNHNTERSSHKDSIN

ETA [2] = molecular target: T2, ETA; remark: listed apart in the source
ETA [3] = molecular target: T2, ETA; assay: VERA-A: antagonism of ET-1 stimulated vasoconstriction in the rabbit femoral artery (ETA); assay type: cell-based
Protocol: Male New Zealand rabbits were killed by cervical dislocation and exsanguination. Femoral and pulmonary arteries were isolated, cleaned of connective tissue, and cut into 4-mm rings. The endothelium was denuded by placing the rings over hypodermic tubing (32 gauge for femoral rings and 28 gauge for pulmonary rings, Small Parts, Inc, Miami, Fla.) and gently rolling them. […] Resting tension was adjusted to 3.0 g for femoral and 4.0 g pulmonary arteries; the rings were left for 90 minutes to equilibrate.

human ETB receptor = molecular target: T3, human ETB receptor (Homo sapiens, UniProt P24530); assay: ERBA-B: [125I]-ET-1 binding, recombinant human ETB receptor expressed in CHO-K1 cells
T3 construct: expressed in transfected cells; host or cells: CHO-K1 cells, pRc-CMW (so in the source) expression vector, electroporation; membranes used
T3 sequence (P24530 27-442): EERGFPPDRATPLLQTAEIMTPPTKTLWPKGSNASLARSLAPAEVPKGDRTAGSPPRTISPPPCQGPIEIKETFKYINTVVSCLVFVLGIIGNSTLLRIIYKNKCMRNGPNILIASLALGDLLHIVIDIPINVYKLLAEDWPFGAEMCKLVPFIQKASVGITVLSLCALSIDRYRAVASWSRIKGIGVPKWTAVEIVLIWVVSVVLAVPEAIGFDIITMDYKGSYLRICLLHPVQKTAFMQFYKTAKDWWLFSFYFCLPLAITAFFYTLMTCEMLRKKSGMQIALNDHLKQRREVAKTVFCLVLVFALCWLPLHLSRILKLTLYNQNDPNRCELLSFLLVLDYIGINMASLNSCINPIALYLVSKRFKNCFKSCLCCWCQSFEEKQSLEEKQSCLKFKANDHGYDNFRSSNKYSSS

[4] = ERBA-A IC50, [125I]-ET-1, rabbit renal artery vascular smooth muscle cells
[5] = ET-1, rabbit femoral artery, read-out: VERA-A pA2 (converted)
[6] = human cloned ETB receptor, read-out: ERBA-B IC50, human cloned receptor data
[7] = read-out: ERBA-A IC50, [125I]-ET-1, rabbit renal artery vascular smooth muscle cells
[8] = read-out: AAR-A, ET-1 (0.3 nM) stimulated arachidonic acid release

Structure (SMILES) | IC50 (ETB) | IC50 (ETA [1]; [4]) | IC50 (ETA [2]) | Kb (ETA [3]; [5]) | IC50 (human ETB receptor; [6]) | VERA-A pA2 (ETA [3]; ET-1, rabbit femoral artery) | IC50 (ETA [1]; [7]) | IC50 (ETA [2]; [8]) | IC50 (human ETB receptor; ERBA-B IC50, human cloned receptor data) | Kb (ETA [3])
COc1ccc(C2(O)OC(=O)C(c3ccc4c(c3)OCO4)=C2Cc2cccc(Cl)c2)cc1 (centres unmarked) [Example 75, 3-Benzo[1,3]dioxol-5-yl-4-(3-chlorobenzyl)-5-hydroxy-5-(4-methoxyphenyl)-5H -furan-2-one] | 1200 nM | 16 nM | 71 nM |  |  |  |  |  |  | 
COc1ccc(C2(O)OC(=O)C(c3ccc4c(c3)OCO4)=C2Cc2ccc(C)cc2)cc1 (centres unmarked) [Example 76] | 390 nM | 50 nM | 520 nM |  |  |  |  |  |  | 
COc1ccc(C2(O)OC(=O)C(c3ccc4c(c3)OCO4)=C2Cc2cccc(C(F)(F)F)c2)cc1 (centres unmarked) [Example 82, 3-Benzo[1,3]dioxol-5-yl-5-hydroxy-5-(4-methoxyphenyl)-4-(3-trifluoromethylbenzyl)-5H-furan-2-one] | 1300 nM | 20 nM | 140 nM | 2510 nM |  |  |  |  |  | 
COc1ccc(C2(O)OC(=O)C(c3ccc4c(c3)OCO4)=C2Cc2ccc(N(C)C)cc2)cc1 (centres unmarked) [Example 85, 3-Benzo[1,3]dioxol-5-yl-4-(4-dimethylaminobenzyl)-5-hydroxy-5-(4-methoxyphenyl)-5H-furan-2-one] |  | 23 nM | 200 nM | 398 nM | 1600 nM |  |  |  |  | 
COc1ccc(C2(O)OC(=O)C(c3ccc4c(c3)OCO4)=C2Cc2ccc(OC)c(C)c2)cc1 (centres unmarked) [Example 89, 3-Benzo[1,3]dioxol-5-yl-5-hydroxy-4-(4-methoxy-3-methylbenzyl)-5-(4-methoxyphenyl)-5H-furan-2-one] |  |  |  |  |  | 6.3 | 6 nM | 39 nM |  | 
CCCOc1cccc(CC2=C(c3cc(OC)cc(OC)c3)C(=O)OC2(O)c2ccc(OC)cc2)c1 (centres unmarked) [Example 126, 3-(3,5-Dimethoxyphenyl)-5-hydroxy-5-(4-methoxyphenyl)-4-(3-propoxybenzyl)-5 H-furan-2-one] |  | 10 nM | 86 nM | 200 nM | 1500 nM |  |  |  |  | 
COc1ccc(C2(O)OC(=O)C(c3cc(OC)cc(OC)c3)=C2Cc2cccc(Cl)c2)cc1 (centres unmarked) [Example 127, 4-(3-Chlorobenzyl)-3-(3,5-dimethoxyphenyl)-5-hydroxy-5-(4-methoxyphenyl)-5H -furan-2-one] |  | 13 nM | 150 nM | 631 nM | 1200 nM |  |  |  |  | 
COc1ccc(C2(O)OC(=O)C(c3cc(OC)cc(OC)c3)=C2Cc2cccc(C(F)(F)F)c2)cc1 (centres unmarked) [Example 128, 3-(3,5-Dimethoxyphenyl)-5-hydroxy-5-(4-methoxyphenyl)-4-(3-trifluoromethylbenzyl)-5H-furan-2-one] |  | 23 nM | 210 nM | 1260 nM | 1600 nM |  |  |  |  | 
COc1ccc(C2(O)OC(=O)C(c3cc(OC)cc(OC)c3)=C2Cc2cccc(OC)c2)cc1 (centres unmarked) [Example 130, 3-(3,5-Dimethoxyphenyl)-5-hydroxy-4-(3-methoxybenzyl)-5-(4-methoxyphenyl)-5 H-furan-2-one] |  | 97 nM | 30 nM | 200 nM | 1200 nM |  |  |  |  | 
COc1ccc(C2(O)OC(=O)C(c3cc(OC)cc(OC)c3)=C2Cc2cccnc2)cc1 (centres unmarked) [Example 133, 3-(3,5-Dimethoxyphenyl)-5-hydroxy-5-(4-methoxyphenyl)-4-pyridin-3methyl-5H-furan-2-one] |  | 30 nM | 76 nM |  | 6800 nM |  |  |  |  | 
CCCOc1cccc(CC2=C(c3ccc4c(c3)OCO4)C(=O)OC2(O)c2ccc(OC)cc2)c1 (centres unmarked) [Example 159, 3-Benzo[1,3]dioxol-5-yl-5-hydroxy-5-(4-methoxyphenyl)-4-(3-propoxybenzyl)-5 H-furan-2-one] | 560 nM | 12 nM | 36 nM | 100 nM |  |  |  |  |  | 
COC(=O)c1ccc(CC2=C(c3ccc4c(c3)OCO4)C(=O)OC2(O)c2ccc(OC)cc2)cc1 (centres unmarked) [Example 182, 4-[4-Benzo[1,3]dioxol-5-yl-2-hydroxy-2-(4-methoxyphenyl)-5-oxo-2,5-dihydrof uran-3-ylmethyl]benzoic acid methyl ester] |  | 16 nM | 50 nM |  | 2000 nM |  |  |  |  | 
COc1ccc(C2(O)OC(=O)C(c3ccc4c(c3)OCO4)=C2Cc2ccccc2)cc1OC (centres unmarked) [Example 190, 3-Benzo[1,3]dioxol-5-yl-4-benzyl-5-(3,4-dimethoxyphenyl)-5-hydroxy-5H-furan-2-one] | 750 nM | 65 nM | 780 nM |  |  |  |  |  |  | 
COc1ccc(C2(O)OC(=O)C(c3ccc4c(c3)OCO4)=C2CC2CCCCC2)cc1 (centres unmarked) [Example 221, 3-Benzo[1,3]dioxol-5-yl-4-cyclohexylmethyl-5-hydroxy-5-(4-methoxyphenyl)-5H -furan-2-one] |  |  |  |  | 240 nM | 6.4 | 20 nM | 120 nM |  | 
COc1ccc(C(=O)/C(Cc2cc(OC)c(OC)c(OC)c2)=C(\C(=O)O)c2ccc3c(c2)OCO3)cc1 [Example 354, Sodium 2-Benzo[1,3]dioxol-5-yl-4-(4-methoxy-phenyl)-4-oxo-3-(3,4,5-trimethoxy-benzyl)-but-2-enoate] |  | 0.8 nM | < 1 nM |  |  |  |  |  | 910 nM | 31.6 nM
COc1ccc(C2(O)OC(=O)C(c3ccc4c(c3)OCO4)=C2Cc2cc(OC)c(OC)c(OC)c2)cc1C (centres unmarked) [Example 383, 3-Benzo[1,3]dioxol-5-yl-5-hydroxy-5-(4-methoxy-3-methyl-phenyl)-4-(3,4,5-trimethoxy-benzyl)-5H-furan-2-one] |  | 0.5 nM | 7400 nM |  | 290 nM |  |  |  |  | 
COc1ccc(C2(O)OC(=O)C(c3ccc4c(c3)OCO4)=C2Cc2ccc(NC(C)=O)cc2)cc1C (centres unmarked) [Example 384, N-{4-[4-Benzo[1,3]dioxol-5-yl-2-hydroxy-2-(4-methoxy-3-methyl-phenyl)-5-oxo-2,5-dihydro-furan-3-ylmethyl]-phenyl}-acetamide] |  | 1 nM | 0.21 nM | 50.1 nM | 760 nM |  |  |  |  | 
COc1ccc(C2(O)OC(=O)C(c3cc(OC)cc(OC)c3)=C2Cc2cc(OC)c(OC)c(OC)c2)cc1 (centres unmarked) [Example 388, 3-(3,5-Dimethoxy-phenyl)-5-hydroxy-5-(4-methoxyphenyl)-4-(3,4,5-trimethoxy-benzyl)-5H-furan-2-one] |  | 1.4 nM | 0.26 nM | 100 nM | 1100 nM |  |  |  |  | 
COc1ccc(C2(O)OC(=O)C(c3cc(OC)cc(OC)c3)=C2Cc2ccc(OC(C)C)c(OC)c2)cc1 (centres unmarked) [Example 389, 3-(3,5-Dimethoxy-phenyl)-5-hydroxy-4-(4-isopropoxy-3-methoxy-benzyl)-5-(4-methoxy-phenyl)-5H-furan-2-one] |  | 3.6 nM | 2.4 nM |  | 1100 nM |  |  |  |  | 
